Experiment [1] concerns Runx2 transcriptional activity. Kind of experiment: pGL3-TβRE-luc luciferase reporter assay in 293 cells over-expressing Runx2. The experiment is classed as cell-based. Conditions: 293 cells over-expressing Runx2 and pGL3-TβRE-luc reporter; FIG. 16. The protocol:
For luciferase assay, cells were plated on a 24-well plate one day before transfection, followed by co-transfection with luciferase reporter plasmid and numbers of Runx2 constructs. 36 hours after transfection, cells were recovered and luciferase and β-galactosidase activities were measured in cell lysate by using Luciferase Reporter Assay Kit (Promega) using luminometer according to the manufacturer's recommendations. The pCMVβ-Gal (beta-Galactosidase, Clontech Laboratory) plasmid was included as an internal control to determine the efficiency of transfection.
To examine whether HDAC inhibitors, increasing the level of Runx2 acetylation, could promote the Runx2 transcriptional activity, 293 cells over-expressing Runx2 and pGL3-TβRE-luc reporter were treated with each HDAC inhibitor. The transcriptional activity of Runx2 was evaluated by luciferase report assay, which was performed according to the manufacturer (Promega)'s instructions. As a result, HDAC inhibitors, Tubacin, SAHA, MS-275, Trafoxin B, Oxamflatin, CHAP27, CHAP31, SCOP152, SCOP304 and SCOP402, increased transcriptional activity of Runx2 (FIG. 16). From the result, it was confirmed that HDAC inhibitors not only increase the level of Runx2 acetylation but also increase the Runx2 transcriptional activity.
(In general: A reporter such as luciferase makes a cellular process visible.)

The subject of experiment [2] is Runx2. Description: Runx2 acetylation: immunoprecipitation with anti-acetyl-lysine antibody, Western blot with anti-myc antibody. It counts as cell-based. Conditions: C2C12 cells transfected with myc-tagged Runx2, treated with HDAC inhibitor; FIG. 13. The protocol: Following transfection, the C2C12 and 293 cells were lysed in ice-cold cell lysis buffer (25 mM HEPES (pH 7.5), 150 mM NaCl, 1% NP-40, 0.25% Na deoxycholate, 10% glycerol, 25 mM NaF, 1 mM EDTA, 1 mM Na3VO4, 250 μM phenylmethylsulfonyl fluoride, 10 μg/ml leupeptin, 10 μg/ml aprotinin) and cleared by centrifugation. The resulting supernatants were immunoprecipitated with the appropriate primary and secondary antibodies, and protein A- or protein G-Sepharose beads (Amersham) for 4 hours. All incubations were conducted at 4° C. The Sepharose beads were washed extensively and bound proteins were separated using SDS-PAGE, and then transferred to PVDF membranes. The membranes were incubated with the appropriate antibodies, washed, and then incubated with horseradish peroxidase-coupled secondary antibodies. After washing, the reactive proteins were visualized with an enhanced chemiluminescence (ECL) reagent (Amersham Biosciences).
For HDAC inhibitor treatments, both C2C12 and 293 cells were cultured in fresh medium for 1 day following transfection, and then treated with the inhibitors (Tricostatin A (TSA), CHAP and SCOP) for 16 h, at the specified concentrations according to the methods of Komatsu et al (Cancer Res. 61:4459-4466, 2001) and Nishino et al (Nishino N. et al., Org. Lett. 5: 5079-5082, 2003).
The level of Runx2 acetylation might be controlled by a dynamic equilibrium between acetylation and deacetylation. […] In the present invention, inhibitors of histone diacetylase (HDAC) deacetylating most proteins were treated to Runx2. Particularly, C2C12 cells, transfected with myc-tagged Runx2, were treated with HDAC inhibitors such as SCOP304, SCOP152, CHAP27, SAHA, MS-275, FK228, TrafoxinB and Oxamflatin according to the method of Komatsu et al (Cancer Res. 61:4459-4466, 2001). Immunoprecipitation was performed using anti-acetyl-lysine antibody, followed by Western blot analysis using anti-myc antibody.

Experiment [3] has as its system C2C12 pluripotent mesenchymal precursor cells. Description: Alkaline phosphatase (ALP) activity staining, early marker of osteoblast differentiation. The experiment is classed as cell-based. Conditions: increasing inhibitor concentration in presence of low concentration of BMP-2 (30 ng/ml), FIG. 18. As to the method: Particularly, C2C12 pluripotent mesenchymal precursor cells were treated with each HDAC inhibitor and then fixed with 3.7% formaldehyde for 10 minutes, to which western blue substrate (Promega) was added to induce color development for 10 minutes. And alkaline phosphatase (ALP) activity, an early marker of osteoblast differentiation was measured by the active staining method (Katagiri et al., J. Cell Biol. Vol. 127, 1755-66, 1994). As a result, the treatment of HDAC inhibitors such as TSA, SAHA, MS-275, FK228, Oxamflatin, CHAP27, SCOP152, SCOP304 and SCOP402 caused increase of ALP activity (FIG. 18).

The subject of experiment [4] is periosteal bone formation. Description: Periosteal bone formation after hypodermic injection into mice calvarias, H&E histostaining. It counts as in vivo. Conditions: 10 μl of 60 μM injected hypodermically into calvarias, two weeks, FIG. 22. The protocol:
To confirm the effect of HDAC inhibitors on bone formation, the present inventors investigated the effect of CHAP27, SCOP402 and SCOP304 on periosteal bone formation in rodent. Particularly, 10 μl of HDAC inhibitors (60 μM) were hypodermically injected into mice calvarias (Zhao et al., J. Biol. Chem., 279, 12854-12859, 2004). Two weeks later, the mice were sacrificed, followed by hematoxyline & eosine histostaining (Cell Biology. Second edition, Edited by Julio E. Celis. Published by Academic Press, 1994).

Experiment [5] has as its system OC promoter. Kind of experiment: Osteocalcin (OC) promoter luciferase reporter assay in H1-127-21-2 cells. The experiment is classed as cell-based, mouse. Conditions: H1-127-21-2 cells over-expressing pCS4-3Myc-Runx and pGL2-1050 OC-luc; FIG. 19. The text has this: Full-length Runx2 (SEQ. ID. No 2) labeled with Myc or HA was inserted into a vector to construct CMV promoter-derived mammalian expression vectors pCS4-3Myc and pCS4-3HA (Jin et al., J Biol Chem. Vol. 279, 29409-17, 2004, Ogawa et al., Proc Natl Acad Sci USA. 1993 Vol. 90, 6859-63.). Mutations affecting the Runx2 acetylation site were introduced by PCR (Michaels A. Innis et al., PCR protocols: a guide to method and applications, Qcademic Press, Inc., 1990) and cloned into the pCS4-3Myc vector. The BMP receptor 1 (BMPR1) and HA-p300 expression vectors were obtained from M. Ewen (Dana-Farber Cancer Institute, Harvard Medical School, Boston) (Genes Dev. Vol. 8, 869-84, 1994). The expression plasmids for the myc-HDAC series were cloned into pCS4-3Myc. The luciferase reporter plasmid, pGL3-TbRE, contains two copies of TbRE (originally identified in the immunoglobulin Cα promoter) (Lee, K. S., et al., Mol. Cell. Biol. 20:8783-8792, 2000; pGL3 is product of Promega). […]
For luciferase assay, cells were plated on a 24-well plate one day before transfection, followed by co-transfection with luciferase reporter plasmid and numbers of Runx2 constructs. 36 hours after transfection, cells were recovered and luciferase and β-galactosidase activities were measured in cell lysate by using Luciferase Reporter Assay Kit (Promega) using luminometer according to the manufacturer's recommendations. […]

Numbered stars: 1 amine (or outer) side, 2 acyl side, 3 side chain; on linkers, the order of the positions; unused ones are H or OH. Bridge positions count the residues as written; N and C are the ends. Square brackets hold non-standard residues; d marks the D form. Peptide text beside a SMILES is read from it. I, II: the chains in the order shown. ξ: configuration not given here. hNle(7-SH) = O=C([C@H](CCCCCS[*:3])N[*:1])[*:2]; Ile(3ξ) = CCC(C)[C@H](N)C(=O)O

For the molecule `Nc1ccccc1NC(=O)c1ccc(CNC(=O)OCc2cccnc2)cc1` [MS-275, carbamate, [[4-[[(2-aminophenyl)amino]carbonyl]phenyl]methyl]-, 3-pyridinemethyl ester], in experiment [1], the “transcriptional activity of Runx2 (luciferase reporter)” value (“transcriptional activity of Runx2” below) is reported as “increased”. In addition, the Runx2 acetylation entry in experiment [2] is on record as “increased”. In experiment [3], the ALP activity result was “increase”.
Take `O=C(CCCCCCC(=O)Nc1ccccc1)NO` [SAHA, octanediamide, N-hydroxy-N′-phenyl-]: the “transcriptional activity of Runx2” value in experiment [1] is recorded as “increased”. In addition, in experiment [2], the Runx2 acetylation result is recorded as “increased”. The ALP activity result in experiment [3] is reported as “increase”.
For the molecule “cyclo(-L-Am7-D-Tyr(Me)-L-Ile-D-Pro-) [SCOP152]”, the “transcriptional activity of Runx2” value in experiment [1] is given as “increased”. Further, the Runx2 acetylation entry in experiment [2] is recorded as “increased”. Also, the ALP activity result in experiment [3] is “increase”.
Regarding `O=C(CCCCCCC(=O)Nc1ccc([C@H]2O[C@@H](CSc3nc(-c4ccccc4)c(-c4ccccc4)o3)C[C@@H](c3ccc(CO)cc3)O2)cc1)NO` [Tubacin], the “transcriptional activity of Runx2” value in experiment [1] is “increased”.
As for `CCC(C)[C@@H]1NC(=O)[C@H]2CCCN2C(=O)[C@H](CCCCCSSCCCCC[C@@H]2NC(=O)[C@H]3CCCN3C(=O)[C@H](C(C)CC)NC(=O)[C@@H](Cc3ccc(OC)cc3)NC2=O)NC(=O)[C@@H](Cc2ccc(OC)cc2)NC1=O` (stereo partly drawn) [SCOP304, cyclo(L-Am7 (−)-D-Tyr(Me)-L-Ile-D-Pro)dimer] (I: cyclo([Ile(3ξ)][dP][hNle(7-SH)][dY](Me)) / II: cyclo([Ile(3ξ)][dY](Me)[hNle(7-SH)][dP]); disulfide I:3-II:3), in experiment [4], the bone formation result is recorded as “remarkably enhanced”. Moreover, the “OC promoter activation over the activation observed for Runx2 alone” value in experiment [5] is on record as 2-4 fold. For the same molecule, in experiment [1], the “transcriptional activity of Runx2” value is listed as “increased”. Moreover, the Runx2 acetylation result in experiment [2] was “increased”. Moreover, the ALP activity entry in experiment [3] is on record as “increase”.
For “cyclo(-L-Asu(NHOH)-D-Tyr(Me)-L-Ile-D-Pro-) [CHAP31]”, the “transcriptional activity of Runx2” value in experiment [1] is recorded as “increased”.
Consider Oxamflatin, for which the “transcriptional activity of Runx2” value in experiment [1] is “increased”. Also, the Runx2 acetylation result in experiment [2] is “increased”. Further, the ALP activity entry in experiment [3] is “increase”.
For the molecule `CC(/C=C/C(=O)NO)=C\[C@@H](C)C(=O)c1ccc(N(C)C)cc1` [TSA, 2,4-heptadieneamide, 7-[4-(dimethylamino)phenyl]-N-hydroxy-4,6-dimethyl-7-oxo-, (2E,4E,6R)-], the ALP activity result in experiment [3] is “increase”.
On to `C/C=C1\NC(=O)[C@H]2CSSCC/C=C/[C@H](CC(=O)N[C@H](C(C)C)C(=O)N2)OC(=O)[C@H](C(C)C)NC1=O` [FK228], for which the Runx2 acetylation entry in experiment [2] is recorded as “increased”. The ALP activity result in experiment [3] is recorded as “increase”.

The record behind these values is patent publication US20080219962A1, “Method to Enhance the Bone Formation Activity of Bmp by Runx2 Acetylation” (BIORUNX CO., LTD., priority 2005, published 2008).
